Laboratory results published in patent publication US10174016B2 (BAYER AKTIENGESELLSCHAFT, priority 2014, dated 2019).

How the values were obtained:
human P2X2/3 receptor = human P2X2/3 receptor (Homo sapiens (Human), UniProt P56373+Q9UBL9); test: Intracellular calcium measurement (FLIPR, Fluo-4) of antagonist activity at human P2X2/3 receptors; type: cell-based; conditions: human P2X2/3, FLIPR calcium assay, agonist α,β-Me-ATP; read-out: hP2X2/3 IC50
How it was run: (§1)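 Cells expressing human P2X3 or P2X2/3, loaded with Fluo-4, preincubated 30 min at 37° C. with compound (1% DMSO final), then challenged with α,β-Me-ATP at its EC80. Peak FLIPR fluorescence over 90 sec gave % response; IC50, maximal inhibition and Hill slope from triplicates.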

human P2X3 receptor = human P2X3 receptor (Homo sapiens (Human), UniProt P56373); test: Intracellular calcium measurement (FLIPR, Fluo-4) of antagonist activity at human P2X3 receptors; type: cell-based; conditions: human P2X3, FLIPR calcium assay, agonist α,β-Me-ATP; read-out: hP2X3 IC50
human P2X3 receptor, sequence (P56373 whole entry): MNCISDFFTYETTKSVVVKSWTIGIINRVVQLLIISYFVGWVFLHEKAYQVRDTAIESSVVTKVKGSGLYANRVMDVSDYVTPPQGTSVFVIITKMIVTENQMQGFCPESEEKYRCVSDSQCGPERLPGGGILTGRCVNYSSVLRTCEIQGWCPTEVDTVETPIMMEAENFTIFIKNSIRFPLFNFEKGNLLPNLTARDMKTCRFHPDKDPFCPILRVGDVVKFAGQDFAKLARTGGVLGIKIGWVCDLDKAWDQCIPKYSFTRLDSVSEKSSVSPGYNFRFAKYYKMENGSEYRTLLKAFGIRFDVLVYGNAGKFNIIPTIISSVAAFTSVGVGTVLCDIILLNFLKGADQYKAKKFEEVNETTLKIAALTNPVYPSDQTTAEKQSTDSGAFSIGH
How it was run: as §1

human P2X2/3 receptor, sequence (P56373 whole entry): as above
human P2X2/3 receptor, sequence (Q9UBL9 whole entry): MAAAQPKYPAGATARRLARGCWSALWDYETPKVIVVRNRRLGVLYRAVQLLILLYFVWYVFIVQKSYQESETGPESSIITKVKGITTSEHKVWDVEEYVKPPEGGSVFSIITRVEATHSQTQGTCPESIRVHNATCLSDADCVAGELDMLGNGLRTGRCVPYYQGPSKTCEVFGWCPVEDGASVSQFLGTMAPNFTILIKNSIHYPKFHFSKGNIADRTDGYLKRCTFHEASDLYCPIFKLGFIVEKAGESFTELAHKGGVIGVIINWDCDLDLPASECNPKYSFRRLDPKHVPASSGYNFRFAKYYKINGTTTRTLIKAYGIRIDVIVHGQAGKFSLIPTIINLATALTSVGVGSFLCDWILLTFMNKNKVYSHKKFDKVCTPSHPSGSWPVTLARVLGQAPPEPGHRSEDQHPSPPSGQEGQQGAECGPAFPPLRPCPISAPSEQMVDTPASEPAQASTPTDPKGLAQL

| IC50 (human P2X2/3 receptor) [nM] | IC50 (human P2X3 receptor) [nM] | SMILES |
| --- | --- | --- |
| 281 | 7 | Cc1cnc(-c2cc(O[C@@H]3CC[C@H]4[C@H]3OCCN4C)cc(C(=O)N[C@H](C)c3cnc(C(F)(F)F)nc3)c2)s1 [Example 218, 3-{[(4aS,7R, 7aR)-4-methyloctahydro-cyclopenta [b][1,4]oxazin-7-yl]oxy}-5-(5-methyl-1,3-thiazol-2-yl)-N-{(1R)-1-[2-(trifluoromethyl)pyrimidin-5-yl]ethyl} benzamide] |
| 199 | 2 | Cc1cnc(-c2cc(O[C@H]3CC[C@H]4[C@H]3OCCN4C)cc(C(=O)N[C@H](C)c3cnc(C(F)(F)F)nc3)c2)s1 [Example 219, 3-{[(4aS,7S, 7aR)-4-methylocta-hydro-cyclopenta[b] [1,4]oxazin-7-yl]oxy}-5-(5-methyl-1,3-thiazol-2-yl)-N-{(1R)-1-[2-(trifluoromethyl)pyrimidin-5-yl]ethyl} benzamide] |
| 569 | 9 | Cc1cnc(-c2cc(OC3CCN(C(C)C)CC3)cc(C(=O)N[C@H](C)c3ccc(C(F)(F)F)nn3)c2)s1 [Example 224, 3-(5-Methyl-1,3-thiazol-2-yl)-5-{[1-(propan-2-yl)piperidin-4-yl]oxy}-N-{(1R)-1-[6-(trifluoromethyl)pyridazin-3-yl]ethyl}benzamide] |
| 1140 | 16 | Cc1cnc(-c2cc(O[C@H]3CCN(C(C)C)C3)cc(C(=O)N[C@H](C)c3cnc(C(F)(F)F)nc3)c2)s1 [Example 225, 3-(5-methyl-1,3-thiazol-2-yl)-5-{[(3S)-1-(propan-2-yl)pyrrolidin-3-yl]oxy}-N-{(1R)-1-[2-(trifluoromethyl)pyrimidin-5-yl]ethyl}benzamide] |
| 59 | 6 | COC(=O)N1CCC(Oc2cc(C(=O)N[C@H](C)c3cnc(C(F)(F)F)nc3)cc(-c3ncc(C)s3)c2)CC1 [Example 226, Methyl 4-[3-(5-methyl-1,3-thiazol-2-yl)-5-({(1R)-1-[2-(trifluoromethyl)pyrimidin-5-yl]ethyl}carbamoyl)phenoxy]piperidine-1-carboxylate] |
| 161 | 13 | CCOC(=O)N1CCC(Oc2cc(C(=O)N[C@H](C)c3cnc(C(F)(F)F)nc3)cc(-c3ncc(C)s3)c2)CC1 [Example 227, Ethyl 4-[3-(5-methyl-1,3-thiazol-2-yl)-5-({(1R)-1-[2-(trifluoromethyl)pyrimidin-5-yl]ethyl}carbamoyl)phenoxy]piperidine-1-carboxylate] |
| 54 | 5 | CCOC(=O)N1CC[C@H](Oc2cc(C(=O)N[C@H](C)c3cnc(C(F)(F)F)nc3)cc(-c3ncc(C)s3)c2)C1 [Example 228, Ethyl (3S)-3-[3-(5-methyl-1,3-thiazol-2-yl)-5-({(1R)-1-[2-(trifluoromethyl)pyrimidin-5-yl]ethyl}carbamoyl)phenoxy]pyrrolidine-1-carboxylate] |
| 2280 | 44 | Cc1cnc(-c2cc(OC3CN(C(C)C)C3)cc(C(=O)N[C@H](C)c3cnc(C(F)(F)F)nc3)c2)s1 [Example 229, 3-(5-Methyl-1,3-thiazol-2-yl)-5-{[1-(propan-2-yl)azetidin-3-yl]oxy}-N-{(1R)-1-[2-(trifluoromethyl)pyrimidin-5-yl]ethyl}benzamide] |
| 759 | 13 | Cc1cnc(-c2cc(OC3CCS(=O)(=O)CC3)cc(C(=O)N[C@H](C)c3cnc(C(F)(F)F)nc3)c2)s1 [Example 232, 3-[(1,1-dioxidotetrahydro-2H-thiopyran-4-yl)oxy]-5-(5-methyl-1,3-thiazol-2-yl)-N-{(1R)-1-[2-(trifluoromethyl)pyrimidin-5-yl]ethyl}benzamide] |
| 753 | 16 | Cc1cnc(-c2cc(OC3CCS(=O)(=O)CC3)cc(C(=O)N[C@H](C)c3ccc(C(F)(F)F)nc3)c2)s1 [Example 233, 3-[(1,1-dioxidotetrahydro-2H-thiopyran-4-yl)oxy]-5-(5-methyl-1,3-thiazol-2-yl)-N-{(1R)-1-[6-(trifluoromethyl)pyridin-3-yl]ethyl}benzamide] |
| 70 | 18 | CCc1cnc(-c2cc(OC3CCOCC3)cc(C(=O)NCc3ccc(C)nn3)c2)s1 [Example 235, 3-(5-ethyl-1,3-thiazol-2-yl)-N-[(6-methylpyridazin-3-yl)methyl]-5-(tetrahydro-2H-pyran-4-yloxy)benzamide] |
| 537 | 177 | Cc1ccc(CNC(=O)c2cc(OC3CCOCC3)cc(-c3ncc(C4CCC4)s3)c2)nn1 [Example 237, 3-(5-cyclobutyl-1,3-thiazol-2-yl)-N-[(6-methylpyridazin-3-yl)methyl]-5-(tetrahydro-2H-pyran-4-yloxy)benzamide] |
| 397 | 38 | C[C@@H](NC(=O)c1cc(OC2CCOCC2)cc(-c2ncc(C3CCC3)s2)c1)c1cnc(C(F)(F)F)nc1 [Example 238, 3-(5-cyclobutyl-1,3-thiazol-2-yl)-5-(tetrahydro-2H-pyran-4-yloxy)-N-{(1R)-1-[2-(trifluoromethyl)pyrimidin-5-yl]ethyl}benzamide] |
| 2170 | 1420 | C[C@H](NC(=O)c1cc(OC[C@H]2CCOC2)cc(-c2ncc(C3CCC3)s2)c1)c1cnc(C(F)(F)F)nc1 [Example 239, 3-(5-cyclobutyl-1,3-thiazol-2-yl)-5-[(3S)-tetrahydrofuran-3-ylmethoxy]-N-{(1S)-1-[2-(trifluoromethyl)pyrimidin-5-yl]ethyl}benzamide] |
| 35 | 12 | CCc1cnc(-c2cc(O[C@@H]3CCOC3)cc(C(=O)N[C@H](C)c3ccc(C)nn3)c2)s1 [Example 240, 3-(5-ethyl-1,3-thiazol-2-yl)-N-[(1R)-1-(6-methylpyridazin-3-yl)ethyl]-5-[(3R)-tetrahydrofuran-3-yloxy]benzamide] |
| 22 | 2 | CCc1cnc(-c2cc(O[C@@H]3CCOC3)cc(C(=O)N[C@H](C)c3cnc(C(F)(F)F)nc3)c2)s1 [Example 242, 3-(5-ethyl-1,3-thiazol-2-yl)-5-[(3R)-tetrahydrofuran-3-yloxy]-N-{(1R)-1-[2-(trifluoromethyl)pyrimidin-5-yl]ethyl}benzamide] |
| 982 | 266 | Cc1ccc([C@@H](C)NC(=O)c2cc(O[C@@H]3CCOC3)cc(-c3ncc(C(C)C)s3)c2)nn1 [Example 246, N-[(1R)-1-(6-methylpyridazin-3-yl)ethyl]-3-[5-(propan-2-yl)-1,3-thiazol-2-yl]-5-[(3R)-tetrahydrofuran-3-yloxy]benzamide] |
| 273 | 44 | CC(C)c1cnc(-c2cc(O[C@@H]3CCOC3)cc(C(=O)N[C@H](C)c3cnc(C(F)(F)F)nc3)c2)s1 [Example 248, 3-[5-(propan-2-yl)-1,3-thiazol-2-yl]-5-[(3R)-tetrahydrofuran-3-yloxy]-N-{(1R)-1-[2-(trifluoromethyl)pyrimidin-5-yl]ethyl}benzamide] |
| 57 | 11 | CCc1cnc(-c2cc(O[C@H]3CCOC3)cc(C(=O)N[C@H](C)c3ccc(C)nn3)c2)s1 [Example 249, 3-(5-ethyl-1,3-thiazol-2-yl)-N-[(1R)-1-(6-methylpyridazin-3-yl)ethyl]-5-[(3S)-tetrahydrofuran-3-yloxy]benzamide] |
